Measurements taken from US20230190754A1, “Therapeutic combinations for the treatment of Progressive Fibrosing interstitial lung diseases” (Boehringer Ingelheim International GmbH, priority 2021, published 2023).
Marks after values point to notes of the source that are not given here.

System: IPF patients
Experiment: Phase II clinical trial in IPF patients: Treatment Emergent Adverse Events (safety/tolerability), up to 13 weeks
[1] = Non-AF-group, 18 mg b.i.d., listed as Compound of Formula III
[2] = Non-AF-group, 18 mg b.i.d., listed as active agent

[O-][S@+]1CCc2nc(N3CCC(c4ncc(Cl)cn4)CC3)nc(NC3(CO)CCC3)c21 [Comp. of form. III]
AE: Decreased appetite, patients % (Non-AF-group, 18 mg b.i.d.): (2.1) %
AE: Decreased appetite, patients n (Non-AF-group, 18 mg b.i.d.): 1
AE: Diarrhoea, patients % (Non-AF-group, 18 mg b.i.d.): 16.7%
AE: Diarrhoea, patients n (Non-AF-group, 18 mg b.i.d.): 8
AE: Dizziness, patients % (Non-AF-group, 18 mg b.i.d.): (2.1) %
AE: Dizziness, patients n (Non-AF-group, 18 mg b.i.d.): 1
AE: Dyspepsia, patients % (Non-AF-group, 18 mg b.i.d.): (6.3) %
AE: Dyspepsia, patients n (Non-AF-group, 18 mg b.i.d.): 3
AE: Dyspnoea, patients % (Non-AF-group, 18 mg b.i.d.): (6.3) %
AE: Dyspnoea, patients n (Non-AF-group, 18 mg b.i.d.): 3
AE: Fatigue, patients % (Non-AF-group, 18 mg b.i.d.): (4.2) %
AE: Fatigue, patients n (Non-AF-group, 18 mg b.i.d.): 2
AE: Flatulence, patients % (Non-AF-group, 18 mg b.i.d.): (6.3) %
AE: Flatulence, patients n (Non-AF-group, 18 mg b.i.d.): 3
AE: Gastrointestinal disorders, patients % (Non-AF-group, 18 mg b.i.d.): (27.1) %
AE: Gastrointestinal disorders, patients n (Non-AF-group, 18 mg b.i.d.): 13
AE: General disorders and administration site conditions, patients % (Non-AF-group, 18 mg b.i.d.): (18.8) %
AE: General disorders and administration site conditions, patients n (Non-AF-group, 18 mg b.i.d.): 9
AE: Headache, patients % (Non-AF-group, 18 mg b.i.d.): (6.3) %
AE: Headache, patients n (Non-AF-group, 18 mg b.i.d.): 3
AE: Infections and infestations, patients % (Non-AF-group, 18 mg b.i.d.): (14.6) %
AE: Infections and infestations, patients n (Non-AF-group, 18 mg b.i.d.): 7
AE: Investigations, patients % (Non-AF-group, 18 mg b.i.d.): (10.4) %
AE: Investigations, patients n (Non-AF-group, 18 mg b.i.d.): 5
AE: Metabolism and nutrition disorders, patients % (Non-AF-group, 18 mg b.i.d.): (2.1) %
AE: Metabolism and nutrition disorders, patients n (Non-AF-group, 18 mg b.i.d.): 1
AE: Musculoskeletal and connective tissue disorders, patients % (Non-AF-group, 18 mg b.i.d.): (4.2) %
AE: Musculoskeletal and connective tissue disorders, patients n (Non-AF-group, 18 mg b.i.d.): 2
AE: Nausea, patients % (Non-AF-group, 18 mg b.i.d.): (4.2) %
AE: Nausea, patients n (Non-AF-group, 18 mg b.i.d.): 2
AE: Nervous system disorders, patients % (Non-AF-group, 18 mg b.i.d.): (8.3) %
AE: Nervous system disorders, patients n (Non-AF-group, 18 mg b.i.d.): 4
AE: Oedema peripheral, patients % (Non-AF-group, 18 mg b.i.d.): (2.1) %
AE: Oedema peripheral, patients n (Non-AF-group, 18 mg b.i.d.): 1
AE: Pyrexia, patients % (Non-AF-group, 18 mg b.i.d.): (2.1) %
AE: Pyrexia, patients n (Non-AF-group, 18 mg b.i.d.): 1
AE: Respiratory, thoracic and mediastinal disorders, patients % (Non-AF-group, 18 mg b.i.d.): (16.7) %
AE: Respiratory, thoracic and mediastinal disorders, patients n (Non-AF-group, 18 mg b.i.d.): 8
AE: Rhinorrhoea, patients % (Non-AF-group, 18 mg b.i.d.): (2.1) %
AE: Rhinorrhoea, patients n (Non-AF-group, 18 mg b.i.d.): 1
AE: Vomiting, patients % (Non-AF-group, 18 mg b.i.d.): (2.1) %
AE: Vomiting, patients n (Non-AF-group, 18 mg b.i.d.): 1
AE: Weight decreased, patients % (Non-AF-group, 18 mg b.i.d.): (4.2) %
AE: Weight decreased, patients n (Non-AF-group, 18 mg b.i.d.): 2
AEs leading to discontinuation of trial drug, patients % (Non-AF-group, 18 mg b.i.d.): (6.3) %
AEs leading to discontinuation of trial drug, patients n (Non-AF-group, 18 mg b.i.d.): 3
Any AE, patients n (Non-AF-group, 18 mg b.i.d.): 31
Gastrointestinal disorders leading to discontinuation of trial treatment, patients n (Non-AF-group, 18 mg b.i.d.): 1
SAE: COPD, patients % (Non-AF-group, 18 mg b.i.d.): (2.1) %
SAE: COPD, patients n (Non-AF-group, 18 mg b.i.d.): 1
SAE: Cardiac disorders, patients % (Non-AF-group, 18 mg b.i.d.): (2.1) %
SAE: Cardiac disorders, patients n (Non-AF-group, 18 mg b.i.d.): 1
SAE: Cardiac failure congestive, patients % (Non-AF-group, 18 mg b.i.d.): (2.1) %
SAE: Cardiac failure congestive, patients n (Non-AF-group, 18 mg b.i.d.): 1
SAE: Covid-19 pneumonia (fatal event), patients % (Non-AF-group, 18 mg b.i.d.): (2.1)* %
SAE: Covid-19 pneumonia (fatal event), patients n (Non-AF-group, 18 mg b.i.d.): 1
SAE: Dyspnoea, patients % (Non-AF-group, 18 mg b.i.d.): (2.1) %
SAE: Dyspnoea, patients n (Non-AF-group, 18 mg b.i.d.): 1
SAE: Infections and Infestations, patients % (Non-AF-group, 18 mg b.i.d.): (2.1) %
SAE: Infections and Infestations, patients n (Non-AF-group, 18 mg b.i.d.): 1
SAE: Lung neoplasm, patients % (Non-AF-group, 18 mg b.i.d.): (2.1) %
SAE: Lung neoplasm, patients n (Non-AF-group, 18 mg b.i.d.): 1
SAE: Neoplasms benign, malignant and unspecified, patients % (Non-AF-group, 18 mg b.i.d.): (2.1) %
SAE: Neoplasms benign, malignant and unspecified, patients n (Non-AF-group, 18 mg b.i.d.): 1
SAE: Respiratory, thoracic and mediastinal disorders, patients % (Non-AF-group, 18 mg b.i.d.): (2.1) %
SAE: Respiratory, thoracic and mediastinal disorders, patients n (Non-AF-group, 18 mg b.i.d.): 1
Serious AEs (patients with ≥1 SAE), patients % (Non-AF-group, 18 mg b.i.d.): (6.3) %
Serious AEs (patients with ≥1 SAE), patients n (Non-AF-group, 18 mg b.i.d.): 3
Severe AEs, patients % (Non-AF-group, 18 mg b.i.d.): (4.2) %
Severe AEs, patients n (Non-AF-group, 18 mg b.i.d.): 2
Vomiting leading to discontinuation of trial treatment, patients % (Non-AF-group, 18 mg b.i.d.): (2.1) %
Vomiting leading to discontinuation of trial treatment, patients n (Non-AF-group, 18 mg b.i.d.): 1
AE: Diarrhoea, patients % [1]: (16.7) %
Any AE, patients % [1]: (64.6) %
Gastrointestinal disorders leading to discontinuation of trial treatment, patients % [1]: (2.1) %
AE: Diarrhoea, patients % [2]: 16.7%
Any AE, patients % [2]: 64.6%
Gastrointestinal disorders leading to discontinuation of trial treatment, patients % [2]: 2.1%
Abdominal Pain, % (Total, N = 97): (2.1) %
Arthralgia, % (Total, N = 97): (2.1) %
Asthenia, % (Total, N = 97): (4.1) %
Bronchitis, % (Total, N = 97): (2.1) %
Condition aggravated, % (Total, N = 97): (2.1) %
Constipation, % (Total, N = 97): (3.1) %
Cough, % (Total, N = 97): (7.2) %
Decreased appetite, % (Total, N = 97): (3.1) %
Diarrhoea, % (Total, N = 97): (23.7) %
Dizziness, % (Total, N = 97): (2.1) %
Dyspepsia, % (Total, N = 97): (5.2) %
Dyspnoea, % (Total, N = 97): (3.1) %
Fatigue, % (Total, N = 97): (3.1) %
Flatulence, % (Total, N = 97): (5.2) %
Gastrointestinal disorders, % (Total, N = 97): (32.0) %
General Disorders and Administration Side conditions, % (Total, N = 97): (16.5) %
Headache, % (Total, N = 97): (6.2) %
Infections and infestations, % (Total, N = 97): (14.4) %
Investigations, % (Total, N = 97): (15.5) %
Metabolism and nutrition disorders, % (Total, N = 97): (4.1) %
Musculoskeletal and connective tissue disorders, % (Total, N = 97): (5.2) %
Nasopharyngitis, % (Total, N = 97): (4.1) %
Nausea, % (Total, N = 97): (3.1) %
Nervous system disorders, % (Total, N = 97): (13.4) %
Oedema peripheral, % (Total, N = 97): (2.1) %
Pyrexia, % (Total, N = 97): (2.1) %
Respiratory, thoracic and mediastinal disorders, % (Total, N = 97): (14.4) %
Rhinorrhoea, % (Total, N = 97): (2.1) %
Vomiting, % (Total, N = 97): (3.1) %
Weight decreased, % (Total, N = 97): (3.1) %
